Data set [1] is described as follows: Selectivity ratio, ratio of IC50 for CDK2/Cyclin E to IC50 for CDK5/p25.
The target in data set [2] is Cyclin-dependent kinase 5/CDK5 activator 1 (Homo sapiens, UniProt Q00535). The format is protein-complex assay.
Data set [3] has as its target Cyclin-dependent kinase 2/cyclin E1 (Homo sapiens, UniProt P24941). Kind of data set: Inhibition of CDK2/Cyclin E by scintillation proximity assay. In kind it is protein-complex assay. (In general: Scintillation proximity formats need no separation of bound from free tracer.)
Data set [4] concerns Vero. Nature of the data set: Cytotoxicity against african green monkey Vero C1008 cells at 6.25 to 50 ug/ml by neutral red uptake assay. The format is cell-based. As to conditions: chlorocebus sabaeus.

Our source for the Ratio IC50, IC50 and Activity values is ChEMBL document CHEMBL1795325, “Studying synergism of methyl linked cyclohexyl thiophenes with triazole: synthesis and their cdk5/p25 inhibition activity” (Eur J Med Chem, 2011).

Sequence of Cyclin-dependent kinase 5/CDK5 activator 1 (Q00535 whole entry): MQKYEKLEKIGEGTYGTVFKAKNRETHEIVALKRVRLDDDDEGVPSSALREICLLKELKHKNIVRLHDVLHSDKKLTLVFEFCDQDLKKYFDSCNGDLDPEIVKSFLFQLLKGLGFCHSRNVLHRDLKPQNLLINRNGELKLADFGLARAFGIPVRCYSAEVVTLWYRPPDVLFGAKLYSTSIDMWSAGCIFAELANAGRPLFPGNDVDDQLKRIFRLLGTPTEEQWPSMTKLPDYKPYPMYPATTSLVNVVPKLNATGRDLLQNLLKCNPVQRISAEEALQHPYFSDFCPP
Sequence of Cyclin-dependent kinase 5/CDK5 activator 1 (Q15078 whole entry, further chain): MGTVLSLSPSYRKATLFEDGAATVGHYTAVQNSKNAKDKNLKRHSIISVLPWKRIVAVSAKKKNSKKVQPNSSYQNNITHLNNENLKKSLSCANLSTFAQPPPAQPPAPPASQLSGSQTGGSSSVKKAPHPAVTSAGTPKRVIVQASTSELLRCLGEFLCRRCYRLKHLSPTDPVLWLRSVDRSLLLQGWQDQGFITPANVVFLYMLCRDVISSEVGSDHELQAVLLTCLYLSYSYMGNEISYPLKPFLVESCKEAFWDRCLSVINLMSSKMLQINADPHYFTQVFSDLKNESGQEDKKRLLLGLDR

Turning to `CC(=O)Nc1sc2c(c1Cc1nnc(SCC(=O)NN)n1NC(=O)c1ccc(Cl)cc1)CCCC2`, the Ratio IC50 in data set [1] stood at 9.2. Also, the IC50 in data set [2] turned out to be 64 nM; in data set [3] it was 587 nM.

In the case of `NNC(=O)CSc1nnc(Cc2c(NC(=O)CCl)sc3c2CCCC3)n1NC(=O)c1ccc(Cl)cc1`, the Ratio IC50 in data set [1] stood at 20.5. The IC50 in data set [2] is 39 nM; in data set [3], 799 nM. In addition, in data set [4], the Activity result is “Non-toxic”.

As to `NNC(=O)CSc1nnc(Cc2c(NC(=O)CCl)sc3c2CCCC3)n1NC(=O)c1ccccc1`, the Ratio IC50 in data set [1] amounted to 13.2. The IC50 in data set [2] stood at 37 nM; in data set [3], 487 nM. In addition, in data set [4], the Activity entry is reported as “Non-toxic”.

For the molecule `O=C(CSc1nnc(Cc2c(NC(=O)CCl)sc3c2CCCC3)n1NC(=O)c1ccccc1)N/N=C/c1ccccc1`, the Ratio IC50 in data set [1] was more than 17.5. The half-inhibitory concentration (IC50) in data set [2] worked out at 32 nM; in data set [3] it was 560 nM. The Activity entry in data set [4] was “Non-toxic”.

As to `CC(=O)Nn1c(Cc2c(NC(=O)CCl)sc3c2CCCC3)nnc1SCC#N`, the Ratio IC50 in data set [1] turned out to be 21.6. The values for the IC50 in data set [2] and in data set [3] were 61 nM and 1320 nM, respectively. Also, the Activity entry in data set [4] was “Non-toxic”.

On to `N#CCSc1nnc(Cc2c(NC(=O)CCl)sc3c2CCCC3)n1NC(=O)c1ccc(Cl)cc1`, for which the Ratio IC50 in data set [1] is 19.6. For the same molecule, the IC50 turned out to be 58 nM in data set [2] and 1140 nM in data set [3]. Besides, the Activity result in data set [4] is “Non-toxic”.

On to `Nn1c(S)nnc1Cc1c(NC(=O)CCl)sc2c1CCCC2`, for which the Ratio IC50 in data set [1] came out at 1.2. Also, the IC50 in data set [2] came out at 43 nM; in data set [3], 52 nM. Also, in data set [4], the Activity result was “Non-toxic”.

As for `CC(=O)Nn1c(Cc2c(NC(=O)CCl)sc3c2CCCC3)nnc1SCC(=O)NN`, the Ratio IC50 in data set [1] was determined as 98.1. Also, the IC50 in data set [2] was 61 nM; in data set [3] it was 5990 nM. For the same molecule, the Activity result in data set [4] is “Non-toxic”.

With `O=C(CSc1nnc(Cc2c(NC(=O)CCl)sc3c2CCCC3)n1NC(=O)c1ccc(Cl)cc1)N/N=C/c1ccccc1`, in data set [1], the Ratio IC50 was 1.4. For the same molecule, the IC50 in data set [2] was 35 nM; in data set [3], 48 nM. In addition, the Activity result in data set [4] is reported as “Non-toxic”.

One may read the IC50 as the concentration needed to halve the response being measured.
